# Results taken from PubChem BioAssay AID2060884 (Molecular Pharmacology Branch, DTP, NCI, 2025).
# Test system: NCI-H929 complex spheroids, viability % test/control
# Test: Anticancer human tumor NCI-H929 cell line growth inhibition [RAS];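 also: compound exposure lasted seven days before viability was read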;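 as to viability, T/C: 100% = DMSO vehicle control viability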
# Conditions: for IC50: curve of first compound; for viability, T/C: stronger effect = lower value
# Method in brief: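 Tumour cells grown as complex spheroids with HUVEC endothelial cells and mesenchymal stem cells, treated with RAS pathway inhibitor combinations. Each agent spans half-log steps from near clinical Cmax, or 10 microM where Cmax is unknown.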
# [1] = second compound 0.00316 µM, first compound 0.0316 µM
# [2] = second compound 0.00316 µM, first compound 0.1 µM
# [3] = second compound 0.00316 µM, first compound 0.316 µM
# [4] = second compound 0.00316 µM, first compound 1 µM
# [5] = second compound 0.00316 µM, first compound 3.16 µM
# [6] = second compound 0.00316 µM, first compound 10 µM
# [7] = second compound 0.01 µM, first compound 0.0316 µM
# [8] = second compound 0.01 µM, first compound 0.1 µM
# [9] = second compound 0.01 µM, first compound 0.316 µM
# [10] = second compound 0.01 µM, first compound 1 µM
# [11] = second compound 0.01 µM, first compound 3.16 µM
# [12] = second compound 0.01 µM, first compound 10 µM
# [13] = second compound 0.0316 µM, first compound 0.0316 µM
# [14] = second compound 0.0316 µM, first compound 0.1 µM
# [15] = second compound 0.0316 µM, first compound 0.316 µM
# [16] = second compound 0.0316 µM, first compound 1 µM
# [17] = second compound 0.0316 µM, first compound 3.16 µM
# [18] = second compound 0.0316 µM, first compound 10 µM
# [19] = second compound 0.1 µM, first compound 0.0316 µM
# [20] = second compound 0.1 µM, first compound 0.1 µM
# [21] = second compound 0.1 µM, first compound 0.316 µM
# [22] = second compound 0.1 µM, first compound 1 µM
# [23] = second compound 0.1 µM, first compound 3.16 µM
# [24] = second compound 0.1 µM, first compound 10 µM
# [25] = second compound 0.316 µM, first compound 0.0316 µM
# [26] = second compound 0.316 µM, first compound 0.1 µM
# [27] = second compound 0.316 µM, first compound 0.316 µM
# [28] = second compound 0.316 µM, first compound 1 µM
# [29] = second compound 0.316 µM, first compound 3.16 µM
# [30] = second compound 0.316 µM, first compound 10 µM
# [31] = second compound 1 µM, first compound 0.0316 µM
# [32] = second compound 1 µM, first compound 0.1 µM
# [33] = second compound 1 µM, first compound 0.316 µM
# [34] = second compound 1 µM, first compound 1 µM
# [35] = second compound 1 µM, first compound 3.16 µM
# [36] = second compound 1 µM, first compound 10 µM
smiles,measurement,setting,value
CC(C)NCC(C(=O)N1CCN(c2ncnc3c2C(C)CC3O)CC1)c1ccc(Cl)cc1 (stereo unspecified) + C=CC(=O)N1CCN(c2nc(OCC3CCCN3C)nc3c(F)c(-c4nc(N)cc(C)c4C(F)(F)F)c(Cl)cc23)C(C)C1,IC50,second compound 0.00316 µM,2820 nM
same,IC50,second compound 0.01 µM,3070 nM
same,IC50,second compound 0.0316 µM,4680 nM
same,IC50,second compound 0.1 µM,4080 nM
same,IC50,second compound 0.316 µM,2490 nM
same,IC50,second compound 1 µM,3660 nM
same,"viability, T/C",[1],102%
same,"viability, T/C",[2],101%
same,"viability, T/C",[3],108%
same,"viability, T/C",[4],101%
same,"viability, T/C",[5],44.4%
same,"viability, T/C",[6],12.1%
same,"viability, T/C",[7],103%
same,"viability, T/C",[8],103%
same,"viability, T/C",[9],105%
same,"viability, T/C",[10],104%
same,"viability, T/C",[11],48.5%
same,"viability, T/C",[12],15.1%
same,"viability, T/C",[13],97.5%
same,"viability, T/C",[14],103%
same,"viability, T/C",[15],108%
same,"viability, T/C",[16],103%
same,"viability, T/C",[17],67.6%
same,"viability, T/C",[18],16.1%
same,"viability, T/C",[19],101%
same,"viability, T/C",[20],105%
same,"viability, T/C",[21],110%
same,"viability, T/C",[22],108%
same,"viability, T/C",[23],60%
same,"viability, T/C",[24],15.2%
same,"viability, T/C",[25],102%
same,"viability, T/C",[26],105%
same,"viability, T/C",[27],109%
same,"viability, T/C",[28],106%
same,"viability, T/C",[29],35.4%
same,"viability, T/C",[30],15.4%
same,"viability, T/C",[31],114%
same,"viability, T/C",[32],115%
same,"viability, T/C",[33],108%
same,"viability, T/C",[34],108%
same,"viability, T/C",[35],56.3%
same,"viability, T/C",[36],6.44%
CC(C)n1nc(-c2ccc3oc(N)nc3c2)c2c(N)ncnc21 + C=CC(=O)N1CCN(c2nc(OCC3CCCN3C)nc3c(F)c(-c4nc(N)cc(C)c4C(F)(F)F)c(Cl)cc23)C(C)C1,IC50,second compound 0.00316 µM,63.2 nM
same,IC50,second compound 0.01 µM,64.7 nM
same,IC50,second compound 0.0316 µM,65 nM
same,IC50,second compound 0.1 µM,64.2 nM
same,IC50,second compound 0.316 µM,65.5 nM
same,IC50,second compound 1 µM,64.4 nM
same,"viability, T/C","second compound 0.00316 µM, first compound 0.000316 µM",102%
same,"viability, T/C","second compound 0.00316 µM, first compound 0.001 µM",104%
same,"viability, T/C","second compound 0.00316 µM, first compound 0.00316 µM",112%
same,"viability, T/C","second compound 0.00316 µM, first compound 0.01 µM",111%
same,"viability, T/C",[1],118%
same,"viability, T/C",[2],10.6%
same,"viability, T/C","second compound 0.01 µM, first compound 0.000316 µM",102%
same,"viability, T/C","second compound 0.01 µM, first compound 0.001 µM",107%
same,"viability, T/C","second compound 0.01 µM, first compound 0.00316 µM",109%
same,"viability, T/C","second compound 0.01 µM, first compound 0.01 µM",114%
same,"viability, T/C",[7],122%
same,"viability, T/C",[8],13%
same,"viability, T/C","second compound 0.0316 µM, first compound 0.000316 µM",98.6%
same,"viability, T/C","second compound 0.0316 µM, first compound 0.001 µM",106%
same,"viability, T/C","second compound 0.0316 µM, first compound 0.00316 µM",112%
same,"viability, T/C","second compound 0.0316 µM, first compound 0.01 µM",117%
same,"viability, T/C",[13],126%
same,"viability, T/C",[14],12.9%
same,"viability, T/C","second compound 0.1 µM, first compound 0.000316 µM",95.4%
same,"viability, T/C","second compound 0.1 µM, first compound 0.001 µM",106%
same,"viability, T/C","second compound 0.1 µM, first compound 0.00316 µM",115%
same,"viability, T/C","second compound 0.1 µM, first compound 0.01 µM",117%
same,"viability, T/C",[19],122%
same,"viability, T/C",[20],11.6%
same,"viability, T/C","second compound 0.316 µM, first compound 0.000316 µM",107%
same,"viability, T/C","second compound 0.316 µM, first compound 0.001 µM",111%
same,"viability, T/C","second compound 0.316 µM, first compound 0.00316 µM",109%
same,"viability, T/C","second compound 0.316 µM, first compound 0.01 µM",119%
same,"viability, T/C",[25],120%
same,"viability, T/C",[26],13.3%
same,"viability, T/C","second compound 1 µM, first compound 0.000316 µM",114%
same,"viability, T/C","second compound 1 µM, first compound 0.001 µM",110%
same,"viability, T/C","second compound 1 µM, first compound 0.00316 µM",112%
same,"viability, T/C","second compound 1 µM, first compound 0.01 µM",117%
same,"viability, T/C",[31],120%
same,"viability, T/C",[32],9.93%
C[C@@H](NC(=O)c1ncnc(N)c1Cl)c1ncc(C(=O)Nc2cc(C(F)(F)F)c(Cl)cn2)s1 + C=CC(=O)N1CCN(c2nc(OCC3CCCN3C)nc3c(F)c(-c4nc(N)cc(C)c4C(F)(F)F)c(Cl)cc23)C(C)C1,IC50,second compound 0.00316 µM,> 10000 nM
same,IC50,second compound 0.01 µM,> 10000 nM
same,IC50,second compound 0.0316 µM,> 10000 nM
same,IC50,second compound 0.1 µM,> 10000 nM
same,IC50,second compound 0.316 µM,> 10000 nM
same,IC50,second compound 1 µM,> 10000 nM
same,"viability, T/C",[1],106%
same,"viability, T/C",[2],95.9%
same,"viability, T/C",[3],101%
same,"viability, T/C",[4],97.9%
same,"viability, T/C",[5],101%
same,"viability, T/C",[6],115%
same,"viability, T/C",[7],91.8%
same,"viability, T/C",[8],101%
same,"viability, T/C",[9],92.3%
same,"viability, T/C",[10],83.8%
same,"viability, T/C",[11],91.2%
same,"viability, T/C",[12],116%
same,"viability, T/C",[13],95%
same,"viability, T/C",[14],94.1%
same,"viability, T/C",[15],93%
same,"viability, T/C",[16],87.8%
same,"viability, T/C",[17],100%
same,"viability, T/C",[18],115%
same,"viability, T/C",[19],85.9%
same,"viability, T/C",[20],95.2%
same,"viability, T/C",[21],104%
same,"viability, T/C",[22],97.7%
same,"viability, T/C",[23],103%
same,"viability, T/C",[24],114%
same,"viability, T/C",[25],99.6%
same,"viability, T/C",[26],102%
same,"viability, T/C",[27],102%
same,"viability, T/C",[28],95%
same,"viability, T/C",[29],97.3%
same,"viability, T/C",[30],117%
same,"viability, T/C",[31],110%
same,"viability, T/C",[32],101%
same,"viability, T/C",[33],103%
same,"viability, T/C",[34],108%
same,"viability, T/C",[35],103%
same,"viability, T/C",[36],111%
